Reference: publication PMC11195807, “Development of a multi-targeted chemotherapeutic approach based on G-quadruplex stabilisation and carbonic anhydrase inhibition” (Journal of Enzyme Inhibition and Medicinal Chemistry, 2024)
Several values for one entry are separate records, joined by “and”; a condition that tells them apart may be missing. Equal values may be shown once. Where a name gives a salt, the structure may show the parent alone.

What was measured:
[1] = test system: HeLa cells; experiment: MTT assay, HeLa cells in normoxia; assay type: cell-based; settings: 48 h
From the text: Combining the results on carbonic anhydrase inhibition and GQ thermal stabilisation, we selected the sulphonamides S-2,0, S-4,0, S-5,0 and the coumarins C-3,2, C-4,2, C-5,2 as the most promising MTDLs to be further investigated, since able to both efficiently suppress the activity of the hCAs IX/XII and stabilise GQ structures, in vitro. Moreover, given that crystals suitable for X-ray diffraction analyses had been successfully obtained for the human telomeric DNA GQ in complex with S-3,2, we also included such sulphonamide derivative in the subsequent studies. Thus, we assessed the cytotoxicity of the selected MTDLs on CA IX-positive HeLa cells, using the MTT assay.
HeLa cells were grown in Dulbecco’s Modified Eagle’s Medium supplemented with 10% FBS, 100 U/mL penicillin, and 100 μg/mL streptomycin, at 37 °C, in a 5% CO2/95% air atmosphere. Cells were sub-cultured at 90% confluence, in the split ratio 1:8, every 3–5 days. The MTDLs used in this study, as well as the CAIs S and C, were dissolved in DMSO at 40 mM (for the sulphonamides) or 10 mM (for the coumarins) concentration. As for berberine, a 50 mM stock solution in DMSO was prepared. Each tested compound was diluted in cell culture medium to the required concentration, immediately prior to use. As regards the experiments under hypoxic conditions, an 80 mM stock solution of CoCl2 was prepared in sterile distilled water and further diluted in medium to obtain the final desired concentrations.
For the MTT experiments in the presence of normal oxygen levels, HeLa cells were seeded in 96-well plates at a density of 15,000 cells per well (culture medium volume – 100 μL/well) and incubated at 37 °C, for 24 h. The medium was then removed, and HeLa were incubated, for 48 h, with fresh medium containing increasing concentrations of MTDLs, single-target-directed agents (berberine, S, and C) or vehicle (0.5% DMSO). The MTDL C-4,2 was also tested for 12 h. As for the co-treatments, cells were co-treated for 12 h with equimolar concentrations of berberine and C. As regards the MTT experiments under hypoxic conditions, HeLa cells were seeded in 96-well plates (8,000 cells per well) and incubated overnight, pre-treated with 50 μM cobalt (II) chloride hexahydrate (CoCl2) and then, for the following 12 h, either exposed to increasing concentrations of C-4,2 or vehicle (0.5% DMSO), or co-treated with equimolar concentrations of berberine and C. Each condition was assayed in triplicate. At the end of the treatments, 10 µL of MTT reagent were added to each well, at a final concentration of 0.5 mg/mL, and the plates were incubated at 37 °C for 4 h. To dissolve the resulting purple formazan crystals, 100 μL of the solubilisation solution were added into each well and the plates were allowed to stand overnight in the incubator (37 °C, 5% CO2/95% air). Finally, the optical density of the samples (at 570 nm) was measured on an ELx800 Absorbance Microplate Reader (BioTek Instruments, Inc., Winooski, VT, USA). The percentage (%) of cell survival for each condition was calculated by using the following equation: % cell survival=OD− OD0/ODCONTROL− OD0×100 where OD is the optical density of the sample, OD0 is the optical density of the background signal, and ODCONTROL is the optical density of the control sample (cells treated with vehicle, 0.5% DMSO). The concentration able to reduce by 50% the cellular viability (IC50) was calculated, for each investigated compound, using Prism 8.0.2 (GraphPad, San Diego, CA, USA) and plotting the percentage of cell survival versus the compound concentration (µM).

[2] = test system: c-Kit1; experiment: CD melting experiments, c-Kit1 GQ; assay type: binding; settings: for ΔT1/2 c-Kit1: 2 molar equiv compound, T1/2 of DNA alone 55.0 °C; for ΔΔT1/2 c-Kit1: ΔT1/2 of compound minus ΔT1/2 of berberine, 2 molar equiv
From the text: (§1) The 21 synthesised MTDLs were screened for their ability to bind to and stabilise DNA GQ-forming sequences, compared to berberine, by CD experiments. Indeed, circular dichroism has shown to be outstandingly useful and informative for noncanonical nucleic acid secondary structures. For this purpose, a G-rich 23-nucleotide truncation (23-nt) of the human telomeric sequence (Tel23) and two G-rich motifs from the promoter regions of c-KIT (c-Kit1) and c-MYC (c-Myc) oncogenes were employed. First, the overall topology adopted by each DNA sequence in K^+-containing buffer was verified by CD spectra. […] GQ conformation (Figure S1, Supporting Information). On the other hand, c-Kit1 and c-Myc sequences adopted a parallel GQ conformation, showing a distinctive positive band at around 260 nm and a negative one at ∼240 nm in their CD spectra (Figures S2 and S3, Supporting Information).
(§2) Afterwards, the GQ-stabilising properties of the molecules were assessed by CD melting experiments, measuring the differences in the apparent melting temperatures of the DNA in the presence and absence of compounds (ΔT1/2) (Figures S4–S6 and Table S2, Supporting Information). […] This could be explained by considering the higher accessibility of the external G-tetrads in the case of parallel GQs compared to the hybrid one[52], which would allow the additional CAI moiety of conjugated compounds to be better accommodated in the binding site. […] . […] .

[3] = test system: c-Myc; experiment: CD melting experiments, c-Myc GQ; assay type: binding; settings: for ΔT1/2 c-Myc: 1 molar equiv compound, T1/2 of DNA alone 70.0 °C; for ΔΔT1/2 c-Myc: ΔT1/2 of compound minus ΔT1/2 of berberine, 1 molar equiv
From the text: as §1, §2

[4] = test system: Hairpin; experiment: CD melting experiments, hairpin DNA duplex; settings: 2 molar equiv compound, T1/2 of DNA alone 66.0 °C
Method: To evaluate the possible binding and stabilisation of double-stranded DNA, a 27-nt long hairpin-forming sequence (Hairpin) was employed.
In particular, the following DNA sequences were synthesised and employed for the experiments: d([sequence]) (c-Kit1), d([sequence]) (c-Myc), d([sequence]) (Tel23), and d([sequence]) (Hairpin). Oligonucleotides were dissolved in the proper buffer and their concentration was measured by UV absorption at 90 °C, as previously reported[80]^,[81]. To achieve the correct folding of the sequences, the DNA solutions were heated in a water bath at 90 °C for 5 min, and then allowed to cool slowly to room temperature overnight. Then, DNA samples were stored at 4 °C for 24 h, before data acquisition.
The samples were prepared by dissolving the oligonucleotides in 5 mM KH2PO4/K2HPO4 buffer (pH 7.0) containing 20 mM KCl (or LiCl in the case of c-Myc because of its high thermal stability). DNA concentrations of 20 µM for GQs and 30 µM for Hairpin were used. For each compound, a 10 mM stock solution in 100% DMSO was prepared. […] CD spectra were acquired at 20 and 100 °C, in the 230–320 nm wavelength range, averaged over three scans and subtracted of the buffer baseline. The scanning speed was set to 100 nm/min, with a 0.5 s response time, and 1 nm bandwidth. CD melting experiments were carried out in the 20–100 °C temperature range, with 1 °C/min heating rate, by following changes in the CD signal at the wavelengths of the maximum CD intensity (i.e. 263 nm for c-Kit1 and c-Myc, and 290 nm for Tel23). As for Hairpin, CD melting curves were recorded by following the changes in the CD signal at 252 nm (the wavelength of the minimum CD intensity). CD melting curves were normalised between 0 and 1. […] The ΔT1/2 values correspond to the difference in the T1/2 values of the nucleic acid structures in the presence and absence of the compounds. All experiments were performed in duplicate, and the reported values are the mean of the two measurements.

[5] = test system: Tel23; experiment: CD melting experiments, Tel23 GQ; assay type: binding, human; settings: for ΔT1/2 Tel23: 2 molar equiv compound, T1/2 of DNA alone 53.5 °C; for ΔΔT1/2 Tel23: ΔT1/2 of compound minus ΔT1/2 of berberine, 2 molar equiv
From the text: as §1, §2

[6] = biological target: T1, hCA I (Homo sapiens, UniProt P00915); experiment: stopped-flow CO2 hydrase assay, hCA I; assay type: biochemical
T1 construct: made in house
T1 sequence (P00915 whole entry): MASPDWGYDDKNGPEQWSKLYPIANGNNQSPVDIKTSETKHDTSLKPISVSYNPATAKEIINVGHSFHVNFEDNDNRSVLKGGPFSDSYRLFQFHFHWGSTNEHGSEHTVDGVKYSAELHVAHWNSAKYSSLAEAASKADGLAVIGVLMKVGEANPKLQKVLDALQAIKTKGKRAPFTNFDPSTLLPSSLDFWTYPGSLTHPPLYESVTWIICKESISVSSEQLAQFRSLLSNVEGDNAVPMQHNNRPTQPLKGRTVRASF
Method: (§3) An Applied Photophysics stopped-flow instrument has been used for assaying the CA-catalysed CO2 hydration activity, as reported earlier. The enzyme concentrations were in the range 5–12 nM. All hCA isoforms were recombinant proteins, being obtained in-house as reported earlier.

[7] = biological target: T2, hCA IX (Homo sapiens, UniProt Q16790); experiment: stopped-flow CO2 hydrase assay, hCA IX; assay type: biochemical; settings: for Ki: mean ± SEM of three assays; for Selectivity index (SI) I/IX: hCA IX over hCA I; for Selectivity index (SI) II/IX: hCA IX over hCA II
T2 construct: made in house
From the text: (§4) An Applied Photophysics stopped-flow instrument has been used for assaying the CA-catalysed CO2 hydration activity, as reported earlier. […] All hCA isoforms were recombinant proteins, being obtained in-house as reported earlier.

[8] = biological target: T3, hCA XII (Homo sapiens, UniProt O43570); experiment: stopped-flow CO2 hydrase assay, hCA XII; assay type: biochemical; settings: for Ki: mean ± SEM of three assays; for Selectivity index (SI) I/XII: hCA XII over hCA I; for Selectivity index (SI) II/XII: hCA XII over hCA II
T3 construct: made in house
T3 sequence (O43570 25-354): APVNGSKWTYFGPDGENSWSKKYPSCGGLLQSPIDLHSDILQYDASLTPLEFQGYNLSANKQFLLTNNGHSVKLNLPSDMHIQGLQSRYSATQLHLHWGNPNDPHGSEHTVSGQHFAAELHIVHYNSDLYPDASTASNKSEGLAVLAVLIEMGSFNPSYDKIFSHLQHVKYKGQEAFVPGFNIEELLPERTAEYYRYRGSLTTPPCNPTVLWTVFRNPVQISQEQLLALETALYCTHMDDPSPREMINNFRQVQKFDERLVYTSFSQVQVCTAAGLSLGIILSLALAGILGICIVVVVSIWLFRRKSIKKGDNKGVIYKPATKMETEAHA
From the text: as §4

[9] = biological target: T4, hCA II (Homo sapiens, UniProt P00918); experiment: stopped-flow CO2 hydrase assay, hCA II; assay type: biochemical
T4 construct: made in house
From the text: . The structure-activity relationship is discussed separately for the two compound subsets. Another code pattern is included for the MTDLs in Table 1, which indicates the derivative CAI type (sulphonamide, S or coumarin, C) and the number of atoms in the spacers connecting either berberine and the triazole (carbon atoms) or the triazole and the benzenesulfonamide/coumarin scaffolds (carbon or oxygen atoms).
as §3

[10] = coumarins, inhibitor-enzyme incubation 6 h
[11] = sulphonamides, inhibitor-enzyme incubation 15 min, mean ± SEM of three assays
[12] = sulphonamides, inhibitor-enzyme incubation 15 min

COc1ccc2cc3[n+](cc2c1OCCn1cc(-c2ccc(S(N)(=O)=O)cc2)nn1)CCc1cc2c(cc1-3)OCO2 (as salt: phosphate) [Compound 26, 10-Methoxy-9–(2-(4–(4-sulfamoylphenyl)-1H-1,2,3-triazol-1-yl)ethoxy)-5,6-dihydro-[1,3]dioxolo[4,5-g]isoquinolino[3,2-a]isoquinolin-7-ium hexafluorophosphate]
melting point: 212 to 215 °C

COc1ccc2cc3[n+](cc2c1OCCn1cc(COc2ccc(S(N)(=O)=O)cc2)nn1)CCc1cc2c(cc1-3)OCO2 (as salt: phosphate) [Compound 27, 10-Methoxy-9–(2-(4-((4-sulfamoylphenoxy)methyl)-1H-1,2,3-triazol-1-yl)ethoxy)-5,6-dihydro-[1,3]dioxolo[4,5-g]isoquinolino[3,2-a]isoquinolin-7-ium hexafluorophosphate]
melting point: 183 to 185 °C

COc1ccc2cc3[n+](cc2c1OCCCn1cc(-c2ccc(S(N)(=O)=O)cc2)nn1)CCc1cc2c(cc1-3)OCO2 (as salt: phosphate) [Compound 28, 10-Methoxy-9–(3-(4–(4-sulfamoylphenyl)-1H-1,2,3-triazol-1-yl)propoxy)-5,6-dihydro-[1,3]dioxolo[4,5-g]isoquinolino[3,2-a]isoquinolin-7-ium hexafluorophosphate]
melting point: 205 to 208 °C

COc1ccc2cc3[n+](cc2c1OCCCn1cc(COc2ccc(S(N)(=O)=O)cc2)nn1)CCc1cc2c(cc1-3)OCO2 (as salt: phosphate) [Compound 29, 10-Methoxy-9–(3-(4-((4-sulfamoylphenoxy)methyl)-1H-1,2,3-triazol-1-yl)propoxy)-5,6-dihydro-[1,3]dioxolo[4,5-g]isoquinolino[3,2-a]isoquinolin-7-ium hexafluorophosphate]
melting point: 120 to 122 °C

COc1ccc2cc3[n+](cc2c1OCCCCn1cc(COc2ccc(S(N)(=O)=O)cc2)nn1)CCc1cc2c(cc1-3)OCO2 (as salt: phosphate) [Compound 31, 10-Methoxy-9–(4-(4-((4-sulfamoylphenoxy)methyl)-1H-1,2,3-triazol-1-yl)butoxy)-5,6-dihydro-[1,3]dioxolo[4,5-g]isoquinolino[3,2-a]isoquinolin-7-ium hexafluorophosphate]
melting point: 165 to 168 °C

COc1ccc2cc3[n+](cc2c1OCCCCCn1cc(-c2ccc(S(N)(=O)=O)cc2)nn1)CCc1cc2c(cc1-3)OCO2 (as salt: phosphate) [Compound 32, 10-Methoxy-9-((5–(4-(4-sulfamoylphenyl)-1H-1,2,3-triazol-1-yl)pentyl)oxy)-5,6-dihydro-[1,3]dioxolo[4,5-g]isoquinolino[3,2-a]isoquinolin-7-ium hexafluorophosphate]
melting point: 200 to 202 °C

COc1ccc2cc3[n+](cc2c1OCCCCCn1cc(COc2ccc(S(N)(=O)=O)cc2)nn1)CCc1cc2c(cc1-3)OCO2 (as salt: phosphate) [Compound 33, 10-Methoxy-9-((5–(4-((4-sulfamoylphenoxy)methyl)-1H-1,2,3-triazol-1-yl)pentyl)oxy)-5,6-dihydro-[1,3]dioxolo[4,5-g]isoquinolino[3,2-a]isoquinolin-7-ium hexafluorophosphate]
melting point: 168 to 171 °C

COc1ccc2cc3[n+](cc2c1OC)CCc1cc2c(cc1-3)OCO2 [Berberine, berberine, reference compound]
effect on HeLa cell viability (in words) ([1]; increasing concentrations): good dose-dependent cytotoxic effect | IC50 ([1]; Homo sapiens, normoxia, read-out: IC50 (50% of cell viability reduction), MTT assay): 75 µM | ΔT1/2 c-Kit1 [2]: 13.0 °C | ΔT1/2 c-Myc [3]: 12.0 °C | ΔT1/2 Hairpin [4]: +0.2 °C | ΔT1/2 Tel23 [5]: 9.5 °C

COc1ccc2cc3[n+](cc2c1OCc1cn(-c2ccc4c(C)cc(=O)oc4c2)nn1)CCc1cc2c(cc1-3)OCO2 [Compound 45, 10-Methoxy-9-((1–(4-methyl-2-oxo-2H-chromen-7-yl)-1H-1,2,3-triazol-4-yl)methoxy)-5,6-dihydro-[1,3]dioxolo[4,5-g]isoquinolino[3,2-a]isoquinolin-7-ium hexafluorophosphate]
Ki [6, 10]: > 100 µM | Ki [7, 10]: 0.0515 ± 0.0036 µM | Selectivity index (SI) I/IX [7]: > 194.2 | Selectivity index (SI) II/IX [7]: > 194.2 | ΔT1/2 c-Kit1 [2]: 16.5 °C | ΔΔT1/2 c-Kit1 [2]: 3.5 °C | ΔΔT1/2 c-Myc [3]: >13.0 °C | ΔΔT1/2 c-Myc ([3]; listed as C-1,0c): > 13.0 °C | Ki [8, 10]: 0.0054 ± 0.0003 µM | Selectivity index (SI) I/XII [8]: > 1852 | Selectivity index (SI) II/XII [8]: > 1852 | ΔT1/2 Hairpin [4]: +2.5 °C | ΔT1/2 Tel23 [5]: 7.0 °C | ΔΔT1/2 Tel23 [5]: −2.5 °C | Ki [9, 10]: > 100 µM

COc1ccc2cc3[n+](cc2c1OCCCS(N)(=O)=O)CCc1cc2c(cc1-3)OCO2 [Compound 47, 10-methoxy-9–(3-sulfamoylpropoxy)-5,6-dihydro-[1,3]dioxolo[4,5-g]isoquinolino[3,2-a]isoquinolin-7-ium hexafluorophosphate]
Ki [6, 11]: 0.0751 ± 0.0054 µM | Selectivity index (SI) I/IX [7]: 4.2 | Selectivity index (SI) II/IX [7]: 1.2 | Ki [7, 12]: 0.0178 ± 0.0009 µM | ΔT1/2 c-Kit1 [2]: 15.5 °C | ΔΔT1/2 c-Kit1 [2]: 2.5 °C | ΔT1/2 c-Myc [3]: 12.5 °C | ΔΔT1/2 c-Myc [3]: 0.5 °C | Selectivity index (SI) I/XII [8]: 2.1 | Selectivity index (SI) II/XII [8]: 0.6 | Ki [8, 12]: 0.0359 ± 0.0021 µM | ΔT1/2 Hairpin [4]: +2.0 °C | ΔT1/2 Tel23 [5]: 6.5 °C | ΔΔT1/2 Tel23 [5]: −3.0 °C | Ki [9, 11]: 0.0215 µM and 0.0221 µM
